Like-named read-outs stand apart in the source and are kept apart here.
Key:
[1] = test system: IL-6 secretion in the human mast cell line HMC 1.1; test: IL-6 production inhibition assay (IL-33 stimulated HMC 1.1 cells, IL-6 ELISA); type: cell-based; conditions: 24 hours; for inhibition at 1 µM: 1 μM compound, read-out: Inhibition of hIL-6 production (%) 1 μM; for inhibition at 10 µM: 10 μM compound, read-out: Inhibition of hIL-6 production (%) 10 μM
Experimental: Human mast cell line HMC 1.1 cells were cultured in medium (Iscove's Modified Dulbecco's Medium, IMDM, HyClone) supplemented with […] fetal bovine serum (FBS, HyClone) and 1% antibiotics and maintained at 37° C. with 5% CO2.
HMC 1.1 cells, which are non-adherent cells, were cultured in 0.5 mL of culture medium containing 200 nM of IL-33 wild type human recombinant protein after centrifugation of cells in culture flasks filled to […] capacity and incubated for 24 hours with […], 10 μM, 25 μM, 30 μM or 50 μM of Example compound.
Medium was harvested by centrifugation (2,000×g, 5 min) and stored at −80° C. until ELISA assay.
Experiments were performed according to the protocol using the Human IL-6 ELISA kit (abCam).
The average of the three values obtained in triplicate was calculated and the amount of IL-6 secretion was measured using a standard curve. The measured IL-6 secretion was converted to 100% based on the vehicle treatment sample value to obtain the vehicle %.

IL33 and ST2 binding = target: T1, IL33 and ST2 binding (Homo sapiens, UniProt O95760);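 also: plate ELISA with coated Flag-tagged human IL-33 and His-tagged human ST2, bound ST2 detected by anti-His HRP and TMB absorbance at 450 nm, 2 h compound incubation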
T1 sequence (O95760 112-270 limits assumed): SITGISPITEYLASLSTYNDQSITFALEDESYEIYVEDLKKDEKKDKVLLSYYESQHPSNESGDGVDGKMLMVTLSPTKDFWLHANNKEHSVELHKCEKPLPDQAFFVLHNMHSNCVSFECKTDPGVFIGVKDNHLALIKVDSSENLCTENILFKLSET
Experimental: 100 nM of Flag tagged IL-33 human recombinant protein was prepared in 1× coating buffer (Biolegend) and placed in a 96 well microplate (Coming) using a Multichannel pipette (Gilson) and coated for at least 12 hours at 4° C.
After washing three times with PBST (1×PBS (Welgene), 1% Tween 20 (sigma)), it was reacted with 1% BSA (Bovogen) blocking buffer for 1 hour at room temperature.
Samples containing 200 nM of His-tagged ST2 human recombinant protein and 60 μM or 200 μM Example synthetic compounds were prepared, added in equal volumes, and reacted for at least 2 hours at room temperature.
After washing three times with PBST (1×PBS (Welgene), 1% Tween 20 (sigma)), anti-His HRP (BioLegend) antibody was diluted 5000:1 and reacted for at least 1 hour at room temperature.
After washing three times with PBST (1×PBS (Welgene), 1% Tween 20 (sigma)), TMB substrate solution (Thermo) was added and reacted for more than 5 minutes. The reaction was stopped by adding 1 N HCl (Samchun) and the absorbance value was obtained at 450 nm after orbital shaking for 5 s with a Microplate reader (Tecan, Spark®).
The results derived from the program linked to the microplate reader were analyzed using an Excel program. IL33-ST2 binding rate (binding %) was calculated by averaging the three values obtained in triplicate, subtracting the positive control value, and converting the negative control value to 100%. The inhibition % value of each compound was obtained by subtracting the IL33-ST2 binding % from 100%, and the error range of triplicate was also obtained and reflected in the inhibition graph of the compound.

## CCNC(=O)c1nc(-c2ccc(C(F)(F)F)cc2)oc1-c1ccc(OC)c(OC)c1 [Compound 302, 5-(3,4-dimethoxyphenyl)-N-ethyl-2-(4-(Trifluoromethyl)phenyl)oxazole-4-carboxamide]
[1]
  inhibition at 1 µM: -34%
  inhibition at 10 µM: -29%

## CSc1ccc(-c2oc(-c3ccc(C(F)(F)F)cc3)nc2C(=O)NCCN2CCN(C(C)=O)CC2)cc1 [Compound 194, N-(2-(4-acetylpiperazin-1-yl)ethyl)-5-(4-(methylthio)phenyl)-2-(4-(trifluoromethyl)phenyl)oxazole-4-carboxamide]
IL33 and ST2 binding; 30 µM
  inhibition: 41%
[1]
  inhibition at 1 µM: 44%
  inhibition at 10 µM: 68%

## CC(=O)N1CCN(CCNC(=O)c2nc(-c3ccc(C(F)(F)F)cc3)oc2-c2cccnc2)CC1 [Compound 197, N-(2-(4-acetylpiperazin-1-yl)ethyl)-5-(pyridin-3-yl)-2-(4-(trifluoromethyl)phenyl)oxazole-4-carboxamide]
IL33 and ST2 binding; 30 µM
  inhibition: 99%
[1]
  inhibition at 1 µM: 62%
  inhibition at 10 µM: 70%

## CCCNC(=O)c1nc(-c2ccc(C(F)(F)F)cc2)oc1-c1ccc(OC)cc1 [Compound 301, 5-(4-Methoxyphenyl)-N-propyl-2-(4-(Trifluoromethyl)phenyl)oxazole-4-carboxamide]
[1]
  inhibition at 1 µM: 21%
  inhibition at 10 µM: 31%

## CCNC(=O)c1nc(-c2cccc(Cl)c2)oc1-c1ccccc1 [Compound 314, 2-(3-Chlorophenyl)-N-ethyl-5-phenyloxazole-4-carboxamide]
IL33 and ST2 binding; 30 µM
  inhibition: -18%
[1]
  inhibition at 1 µM: 10%
  inhibition at 10 µM: 81%

## COc1cccc(-c2oc(-c3ccc(C(F)(F)F)cc3)nc2C(=O)NCCN2CCN(C(C)=O)CC2)c1 [Compound 198, N-(2-(4-acetylpiperazin-1-yl)ethyl)-5-(3-methoxyphenyl)-2-(4-(trifluoromethyl)phenyl)oxazole-4-carboxamide]
IL33 and ST2 binding; 30 µM
  inhibition: 5%
[1]
  inhibition at 1 µM: 62%
  inhibition at 10 µM: 77%

## CCNC(=O)c1nc(-c2ccc(C(F)(F)F)cc2)oc1-c1ccccc1OC [Compound 296, N-Ethyl-5-(2-methoxyphenyl)-2-(4-(trifluoromethyl)phenyl)oxazole-4-carboxamide]
[1]
  inhibition at 1 µM: 0%
  inhibition at 10 µM: 32%

## CCOC(=O)c1nc(-c2ccc(C(F)(F)F)cc2)oc1-c1cc(OC)c(OC)c(OC)c1 [Compound 49, Ethyl 2-(4-(trifluoromethyl)phenyl)-5-(3,4,5-trimethoxyphenyl)oxazole-4-carboxylate]
IL33 and ST2 binding; 30 µM
  inhibition: -65%
[1]
  inhibition at 1 µM: -2%
  inhibition at 10 µM: 16%

## CCCNC(=O)c1nc(-c2ccc(C(F)(F)F)cc2)oc1-c1ccccc1OC(F)(F)F [Compound 306, N-Propyl-5-(2-(trifluoromethoxy)phenyl)-2-(4-(trifluoromethyl)phenyl)oxazole-4-carboxamide]
IL33 and ST2 binding; 30 µM
  inhibition: 38%
[1]
  inhibition at 1 µM: -38%
  inhibition at 10 µM: 45%

## CCCNC(=O)c1nc(-c2ccc(C(F)(F)F)cc2)oc1-c1cccc(OC)c1 [Compound 299, 5-(3-Methoxyphenyl)-N-propyl-2-(4-(Trifluoromethyl)phenyl)oxazole-4-carboxamide]
[1]
  inhibition at 1 µM: 40%
  inhibition at 10 µM: 57%

## CCCNC(=O)c1nc(-c2ccc(C(F)(F)F)cc2)oc1-c1ccncc1 [Compound 310, N-Propyl-5-(pyridin-4-yl)-2-(4-(trifluoromethyl)phenyl)oxazole-4-carboxamide]
[1]
  inhibition at 1 µM: 49%
  inhibition at 10 µM: 58%

## CCCNC(=O)c1nc(-c2ccc(C(F)(F)F)cc2)oc1-c1ccccc1 [Compound 295, 5-Phenyl-N-propyl-2-(4-(trifluoromethyl)phenyl)oxazole-4-carboxamide]
[1]
  inhibition at 1 µM: 53%
  inhibition at 10 µM: 57%

## CCNC(=O)c1nc(-c2ccc(C(F)(F)F)cc2)oc1-c1cc(OC)c(OC)c(OC)c1 [Compound 304, N-Ethyl-2-(4-(trifluoromethyl)phenyl)-5-(3,4,5-trimethoxyphenyl)oxazole-4-carboxamide]
[1]
  inhibition at 1 µM: -47%
  inhibition at 10 µM: -74%

## CCNC(=O)c1nc(-c2ccc(C(F)(F)F)cc2)oc1-c1ccncc1 [Compound 309, N-Ethyl-5-(pyridin-4-yl)-2-(4-(trifluoromethyl)phenyl)oxazole-4-carboxamide]
[1]
  inhibition at 1 µM: 56%
  inhibition at 10 µM: 51%

## CCNC(=O)c1nc(-c2ccc(C(F)(F)F)cc2)oc1-c1cccc(O)c1 [Compound 318, N-Ethyl-5-(3-hydroxyphenyl)-2-(4-(trifluoromethyl)phenyl)oxazole-4-carboxamide]
[1]
  inhibition at 1 µM: 70%
  inhibition at 10 µM: 79%

## CCNC(=O)c1nc(-c2ccc(C(F)(F)F)cc2)oc1-c1ccc(O)c(O)c1 [Compound 321, 5-(3,4-Dihydroxyphenyl)-N-ethyl-2-(4-(trifluoromethyl)phenyl)oxazole-4-carboxamide]
[1]
  inhibition at 1 µM: 50%
  inhibition at 10 µM: 72%

## CCNC(=O)c1nc(-c2ccc(C(F)(F)F)cc2)oc1-c1ccc(OC)cc1 [Compound 300, N-Ethyl-5-(4-methoxyphenyl)-2-(4-(trifluoromethyl)phenyl)oxazole-4-carboxamide]
[1]
  inhibition at 1 µM: 37%
  inhibition at 10 µM: 47%

## CCCNC(=O)c1nc(-c2ccc(C(F)(F)F)cc2)oc1-c1ccccc1OC [Compound 297, 5-(2-Methoxyphenyl)-N-propyl-2-(4-(trifluoromethyl)phenyl)oxazole-4-carboxamide]
[1]
  inhibition at 1 µM: 3%
  inhibition at 10 µM: 34%

## CCCNC(=O)c1nc(-c2ccc(C(F)(F)F)cc2)oc1-c1cccc(O)c1 [Compound 319, 5-(3-Hydroxyphenyl)-N-propyl-2-(4-(trifluoromethyl)phenyl)oxazole-4-carboxamide]
[1]
  inhibition at 1 µM: 75%
  inhibition at 10 µM: 80%

## O=C(c1nc(-c2ccc(C(F)(F)F)cc2)oc1-c1ccccc1[N+](=O)[O-])N1CCCC1 [Compound 138, (5-(2-Nitrophenyl)-2-(4-(trifluoromethyl)phenyl)oxazol-4-yl)(pyrrolidin-1-yl)methanone]
IL33 and ST2 binding; 30 µM
  inhibition: 6%
IL33 and ST2 binding; 100 µM
  inhibition: 11%

## CCOC(=O)c1nc(-c2ccc(C(C)(C)C)cc2)oc1-c1ccc(NC(C)=O)cc1 [Compound 111, Ethyl 5-(4-acetamidophenyl)-2-(4-(tert-butyl)phenyl)oxazole-4-carboxylate]
IL33 and ST2 binding; 30 µM
  inhibition: 10%
IL33 and ST2 binding; 100 µM
  inhibition: 12%

## CN(C)CCNC(=O)c1nc(-c2cc(F)cc(F)c2)oc1-c1ccccc1 [Compound 235, 2-(3,5-Difluorophenyl)-N-(2-(dimethylamino)ethyl)-5-phenyloxazole-4-carboxamide]
IL33 and ST2 binding; 30 µM
  inhibition: 3%
IL33 and ST2 binding; 100 µM
  inhibition: 36%

## CN1CCN(CCNC(=O)c2nc(-c3cccc(OC(F)(F)F)c3)oc2-c2ccccc2[N+](=O)[O-])CC1 [Compound 202, N-(2-(4-Methylpiperazin-1-yl)ethyl)-5-(2-nitrophenyl)-2-(3-(trifluoromethoxy)phenyl)oxazole-4-carboxamide]
IL33 and ST2 binding; 30 µM
  inhibition: 7%
IL33 and ST2 binding; 100 µM
  inhibition: 32%

## CN1CCN(CCNC(=O)c2nc(-c3ccccc3C(F)(F)F)oc2-c2ccccc2[N+](=O)[O-])CC1 [Compound 120, N-(2-(4-Methylpiperazin-1-yl)ethyl)-5-(2-nitrophenyl)-2-(2-(trifluoromethyl)phenyl)oxazole-4-carboxamide]
IL33 and ST2 binding; 30 µM
  inhibition: 7%
IL33 and ST2 binding; 100 µM
  inhibition: 40%

## CCOC(=O)c1nc(-c2ccc3ccccc3c2)oc1-c1ccccc1 [Compound 83, Ethyl 2-(naphthalen-2-yl)-5-phenyloxazole-4-carboxylate]
IL33 and ST2 binding; 30 µM
  inhibition: 22%
IL33 and ST2 binding; 100 µM
  inhibition: 42%

## CCOC(=O)c1nc(-c2cccc(F)c2)oc1-c1ccccc1 [Compound 65, Ethyl 2-(3-fluorophenyl)-5-phenyloxazole-4-carboxylate]
IL33 and ST2 binding; 30 µM
  inhibition: 35%
IL33 and ST2 binding; 100 µM
  inhibition: 32%

## CN(C)CCN1CCN(C(=O)c2nc(-c3ccc(C(F)(F)F)cc3)oc2-c2ccccc2)CC1 [Compound 129]
IL33 and ST2 binding; 30 µM
  inhibition: 45%
IL33 and ST2 binding; 100 µM
  inhibition: 79%

## COc1cccc(-c2nc(C(=O)NCCN(C)C)c(-c3ccccc3[N+](=O)[O-])o2)c1 [Compound 210, N-(2-(Dimethylamino)ethyl)-2-(3-methoxyphenyl)-5-(2-nitrophenyl)oxazole-4-carboxamide]
IL33 and ST2 binding; 30 µM
  inhibition: -11%
IL33 and ST2 binding; 100 µM
  inhibition: -19%

## CSc1ccc(-c2nc(C(=O)NCCN(C)C)c(-c3ccccc3[N+](=O)[O-])o2)cc1 [Compound 273, N-(2-(Dimethylamino)ethyl)-2-(4-(methylthio)phenyl)-5-(2-nitrophenyl)oxazole-4-carboxamide]
IL33 and ST2 binding; 30 µM
  inhibition: -25%
IL33 and ST2 binding; 100 µM
  inhibition: -18%

## CCNC(=O)c1nc(-c2ccc(C(F)(F)F)cc2)oc1-c1cc(OC)cc(OC)c1 [Compound 303, 5-(3,5-Dimethoxyphenyl)-N-ethyl-2-(4-(trifluoromethyl)phenyl)oxazole-4-carboxamide]
[1]
  inhibition at 1 µM: 26%
  inhibition at 10 µM: 26%

## CCOC(=O)c1nc(-c2ccc(C#N)cc2)oc1-c1ccccc1 [Compound 79, Ethyl 2-(4-cyanophenyl)-5-phenyloxazole-4-carboxylate]
IL33 and ST2 binding; 30 µM
  inhibition: 41%
IL33 and ST2 binding; 100 µM
  inhibition: 107%

## CN1CCN(CCNC(=O)c2nc(-c3ccc(C#N)cc3)oc2-c2ccccc2)CC1 [Compound 250, 2-(4-Cyanophenyl)-N-(2-(4-methylpiperazin-1-yl)ethyl)-5-phenyloxazole-4-carboxamide]
IL33 and ST2 binding; 30 µM
  inhibition: 14%
IL33 and ST2 binding; 100 µM
  inhibition: 9%
